Measurements reported in patent publication US7511119B2, “PRAME peptide analogues” (MannKind Corporation, priority 2005, dated 2009).
Square brackets hold non-standard residues; d marks the D form. Ends that are not written are not given here. Nle = CCCC[C@H](N)C(=O)O; Nva = CCC[C@H](N)C(=O)O

What was measured:
HLA-A*0201 [1] = molecular target: T1, HLA-A*0201 (Homo sapiens, UniProt P04439, D140Y/D185E/D98H/E176V/E277Q/G131W/G231S/I119V/I121R/I166T/I218V/L300P/L318F/N151K/N90K/P208A/P217A/Q86G/Q94H/R138H/R169H/T345S); experiment: iTopia affinity assay (ED50); assay type: binding; conditions: PRAME425-433 analogs; affinity lower than native
From the text: Avidin-coated microtiter plates containing class I monomer loaded with a so-called placeholder peptide were used to evaluate peptide binding, affinity and off-rate. The monomer-coated plates were supplied as part of the iTopia Epitope Discovery System Kit (Beckman Coulter, Inc., San Diego, Calif., USA). Assay buffers, anti-MHC-FITC mAb and beta2-microglobulin and control peptides were also supplied with the kits.
Plates were read on the fluorometer. Sigmoidal dose response curves were generated using Prism software.

HLA-A*0201 [2] = molecular target: T1, HLA-A*0201; experiment: Peptide binding using T2 cells; conditions: compared with wild-type peptide;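 note: Read-out is peptide-induced stabilization of HLA-A*0201 on the cell surface, reflecting mainly Kon at limiting peptide levels and both Kon and Koff at saturating levels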
From the text: Thus, at limiting concentrations of peptide, it is a measurement of Kon mostly and at saturation levels of peptide it is a measurement of both Kon and Koff.
Thus, at limiting concentrations of peptide, this is a measurement of Kon mostly and at saturation levels of peptide that is a measurement of both Kon and Koff.

[3] = test system: native PSMA288-297 peptide; experiment: Cross-reactive immunogenicity of PSMA analogs, IFN-gamma ELISPOT; assay type: in vivo, HHD transgenic mice; conditions: peptide plus pI:C intranodal; FIG. 22
Description: Groups of HHD transgenic mice (n=8) were immunized with peptide (natural epitope PSMA288-297, or analogs bearing substitutions at primary or secondary anchor residues) by direct inoculation into the inguinal lymph nodes, with 25 μg in 25 μl of PBS+12.5 μg of pI:C to each lymph node at day 0, 3, 14 and 17.
Mice were sacrificed at 10 days after the last boost, and splenocytes prepared and assessed for IFN-γ production by ELISPOT analysis. […] At 48 hours after incubation, the assay was developed and the frequency of cytokine-producing T cells that recognized native PSMA288-297 peptide was automatically counted. The data is represented in FIG. 22 as the number of spot forming colonies/well (mean of triplicates±SD). […] To the extent that the poor immunogenicity of the native epitope reflects tolerance, the improved activity of these analogs represents tolerance breaking.

LnCap cells = experiment: Ex vivo cytotoxicity against PSMA+ A2+ human tumor cells; assay type: in vivo; conditions: splenocytes restimulated ex vivo with native PSMA288-297
Description: HHD transgenic mice (n=4) were immunized with PSMA288-297 peptide (25 μg in 25 μl of PBS, plus 12.5 μg of pI:C to each lymph node) at day 0, 3, 14 and 17. One week after the boost, splenocytes were stimulated ex vivo with the native PSMA288-297 peptide and tested against ^51Cr-labeled human tumor cells (PSMA^+ A2^+ LnCap cells, or as negative control, LnCap cells coated with MHC class I-blocking antibody) at various E:T ratios.
HHD transgenic mice (n=4) were immunized with plasmid expressing the PSMA288-297 epitope by direct inoculation into the inguinal lymph nodes with 25 μg in 25 μl of PBS to each lymph node at day 0, 3, 14 and 17. This was followed by two peptide boosts (same amount) at day 28 and 31, with the analog I297V. One week after the boost, splenocytes were stimulated ex vivo with the native PSMA288-297 peptide and tested overnight against ^51Cr-labeled human tumor cells (Lncap, A2^+ PSMA^+; or 624.38 A2^+ PSMA^− or control 624.28 cells A2^− PSMA^−) at various E:T ratios.

624.38 melanoma cells = experiment: Ex vivo cytotoxicity against PRAME+ A2+ human tumor cells; assay type: in vivo; conditions: splenocytes restimulated ex vivo with native PRAME peptide
Description: This was followed by two peptide boosts (2.5 μg) at day 28 and 31, with the analog L426Nva L433Nle.

[4] = test system: target cells coated with wild-type peptide; experiment: In vivo cytotoxicity against wild-type NY-ESO-1 peptide-coated target cells; design: species or system HHD mice; conditions: plasmid entrain, peptide amplify; FIGS. 15-16
Description: These cells were then stained with CFSE^hi and CFSE^med fluorescence (4.0 μM or 1 μM, respectively, for 15 minutes) and intravenously co-injected into immunized mice with an equal number of control splenocytes stained with CFSE^lo fluorescence (0.4 μM). Eighteen hours later the specific elimination of target cells was measured by removing the spleens and PBMC from challenged animals and measuring CFSE fluorescence by flow cytometry. The relative depletion of the populations corresponding to peptide loaded splenocytes was calculated relative to the control (unloaded) population and expressed as % specific lysis.

splenocytes = experiment: Ex vivo IFN-gamma production after re-stimulation with wild-type NY-ESO-1157-165 (ELISA); assay type: in vivo, mice; conditions: 10 μM wild-type peptide, 3 and 6 days; FIG. 17
From the text: Supernatants were harvested and the concentration of IFN-γ measured by ELISA.

[5] = molecular target: A0201 restricted MHC Class 1 molecules (Homo sapiens, UniProt P04439, D140Y/D185E/D98H/E176V/E277Q/G131W/G231S/I119V/I121R/I166T/I218V/N151K/N90K/P208A/P217A/Q86G/Q94H/R138H/R169H); experiment: iTopia off-rate assay (T1/2); assay type: binding; conditions: compared with the respective native peptide
Description: Avidin-coated microtiter plates containing class I monomer loaded with a so-called placeholder peptide were used to evaluate peptide binding, affinity and off-rate. […] Assay buffers, anti-MHC-FITC mAb and beta2-microglobulin and control peptides were also supplied with the kits.
The plates were then incubated on the allele-specific monomer plates at 37° C. The plates were measured at multiple time points (0, 0.5, 1, 1.5, 2, 4, 6 and 8 hrs) for relative fluorescence intensity. The time required for 50% of the peptide to dissociate from the MHC monomer is defined as the T1/2 value (hrs).
The binding and offrate (T1/2) was determined for six native epitopes and their analogs which were designed to enhance the immune response.

[6] = test system: native peptide loaded splenocytes; experiment: In vivo cytotoxicity against native PRAME peptide-loaded splenocytes (CFSE); design: species or system HHD transgenic mice; conditions: pCTLR2 prime, peptide boost; FIGS. 30-31
[7] = test system: PRAME425-433-specific T cells; experiment: Tetramer/CD8 co-staining of PRAME425-433-specific T cells; assay type: in vivo, HHD transgenic mice; conditions: versus boost with negative control peptide; FIG. 31
624.38 cells = experiment: Ex vivo cytotoxicity against human tumor cells after boost with tyrosinase analogs; assay type: in vivo; conditions: pSEM prime, peptide boost; FIG. 41
Description: HHD transgenic mice (n=4/group) were immunized (according to the general protocol in FIG. 40) with plasmid (pSEM) expressing the Tyrosinase369-377 epitope by direct inoculation into the inguinal lymph nodes of 25 μg of plasmid in 25 μl of PBS per lymph node at day 0, 3, 14 and 17. […] One week after the boost, splenocytes were stimulated ex vivo with the native Tyrosinase369-377 peptide and assayed against ^51Cr-labeled human tumor cells (624.38 cells) at various E:T ratios. […] Together with the preceding example, this observation illustrates the usefulness of complementing more stringent assays (in vivo cytotoxicity and tetramer staining) with more sensitive assays (ex vivo cytotoxicity after in vitro stimulation) to outline potentially useful analogs.

[8] = molecular target: T2, HLA-A*0201 class I monomer of the iTopia Epitope Discovery System; experiment: iTopia affinity and off-rate assays
T2 construct: also called A0201 restricted MHC Class 1 molecules; MHC monomer

[9] = molecular target: T2, HLA-A*0201 class I monomer of the …; experiment: iTopia affinity assay
[10] = molecular target: T2, HLA-A*0201 class I monomer of the …; experiment: iTopia off-rate assay

“Ala substitution: PRAME425-433 analog with Ala at the PΩ anchor position (SLLQHLIGA; UniProt P78395 425-433, looked up, variant L433A)” was tested, and the “ED50 relative to native peptide” value (HLA-A*0201 [1]) was “more than 10 fold”.

“GLPSIPVHPI (T cell peptide epitope analog) [PSMA 288-297, reference compound]” was tested, and the “binding affinity / binding profile with HLA-A*0201 on T2 cells, in words” value (HLA-A*0201 [2]) was “generally superior binding characteristics”, the “priming of immune response against native PSMA288-297 (IFN-γ ELISPOT), in words” value [3] was “poorly immunogenic” and the “cytotoxicity against LnCap human tumor cells” value (LnCap cells) was “able to lyse human tumor cells”.

For “SLLQHLIGL [PRAME 425-433, reference compound]”, the “cytotoxicity against 624.38 human tumor cells” value (624.38 melanoma cells) was “able to lyse human tumor cells”.

For “SNvaLMWITQV (S[Nva]LMWITQV) [Nyeso-1 157-165 (L158Nva, C165V))]”, the “in vivo cytotoxicity (% specific lysis), in words” value [4] was “substantial, constant cytotoxicity”, the “IFN-gamma production upon ex vivo re-stimulation with wild-type peptide” value (splenocytes) was “large levels of IFN-gamma more rapidly” and the “stability of binding (half-time of dissociation), in words” value [5] was “Significant increase in the stability”.

“T{Nva}LQHLIG{Nle} (T[Nva]LQHLIG[Nle]) [S425T L426Nva L433Nle]” was tested, and the “in vivo cytotoxicity against native epitope, in words” value [6] was “capable of expanding the immunity against the native epitope” and the “expansion of T cells specific against the native epitope (tetramer staining)” value [7] was “significantly higher”.

“YMDGTMSQV [Tyrosinase 369-377, reference compound]” was tested, and the “cytotoxicity against 624.38 cells” value (624.38 cells) was “robust cytotoxicity”.

In the case of “YVDGTMSQNva (YVDGTMSQ[Nva]) [M370V V377Nva]”, the “cytotoxicity against 624.38 cells” value (624.38 cells) is reported as “robust cytotoxicity”.

F[Nva]LQHLIG[Nle] [PRAME425-433 analog with Phe at P1, Nva at P2 and Nle at PΩ]: binds [8].

With SLLQHLIG[Nva] [PRAME425-433 analog with Nva at PΩ] the “fold difference of ED50 against the native peptide” value [9] was no more than 3 fold and the t1/2 [10] was 17.2 h.
